{
  "source": "paper PMC5218480",
  "about": "(PLoS ONE, 2017)",
  "test_system": "MV-4-11 cells",
  "assay": "Gene expression microarray analysis (Affymetrix PrimeView) and GSEA",
  "type": "cell-based, human",
  "design": "RFU PODN (11730768_x_at) / Fold change /veh PODN (11730768_x_at) / RFU LINC00158 (11744669_a_at) / Fold change /veh LINC00158 (11744669_a_at) / RFU DUSP10 (11751237_a_at) / Fold change /veh DUSP10 (11751237_a_at) / RFU ID3 (11757404_x_at) / Fold change /veh ID3 (11757404_x_at) / RFU PLEKHG5 (11737974_s_at) / Fold change /veh PLEKHG5 (11737974_s_at) / RFU LRRC4B (11730491_at) / Fold change /veh LRRC4B (11730491_at) / RFU GIMAP4 (11747438_a_at) / Fold change /veh GIMAP4 (11747438_a_at) / RFU KRT8 (11758183_x_at) / Fold change /veh KRT8 (11758183_x_at) / RFU CNN1 (11734310_a_at) / Fold change /veh CNN1 (11734310_a_at) / RFU VPS37D (11726825_at) / Fold change /veh VPS37D (11726825_at) / RFU C10orf10 (11716522_x_at) / Fold change /veh C10orf10 (11716522_x_at) / RFU KIR2DL2 /// KIR2DL4 /// KIR2DL5A /// KIR2DL5B /// KIR2DS1 /// KIR2DS2 /// KIR2DS3 /// KIR2DS4 /// KIR3DL3 /// KIR3DL3 /// KIR3DS1 (11738374_at) / Fold change /veh KIR2DL2 /// KIR2DL4 /// KIR2DL5A /// KIR2DL5B /// KIR2DS1 /// KIR2DS2 /// KIR2DS3 /// KIR2DS4 /// KIR3DL3 /// KIR3DL3 /// KIR3DS1 (11738374_at) / RFU C1QL1 (11718748_at) / Fold change /veh C1QL1 (11718748_at) / RFU TMPRSS4 (11747572_a_at) / Fold change /veh TMPRSS4 (11747572_a_at) / RFU HAMP (11756126_x_at) / Fold change /veh HAMP (11756126_x_at) / RFU RNFT2 (11725882_a_at) / Fold change /veh RNFT2 (11725882_a_at) / RFU NR4A2 (11747474_a_at) / Fold change /veh NR4A2 (11747474_a_at) / RFU ABCC12 (11746883_a_at) / Fold change /veh ABCC12 (11746883_a_at) / RFU TMEM136 (11760407_x_at) / Fold change /veh TMEM136 (11760407_x_at) / RFU CLDN22 /// WWC2 (11732394_at) / Fold change /veh CLDN22 /// WWC2 (11732394_at) / RFU HLA-DPB1 (11760878_x_at) / Fold change /veh HLA-DPB1 (11760878_x_at) / RFU SPINT1 (11716480_a_at) / Fold change /veh SPINT1 (11716480_a_at) / RFU GAP43 (11754022_s_at) / Fold change /veh GAP43 (11754022_s_at) / RFU A4GNT (11735810_at) / Fold change /veh A4GNT (11735810_at) / RFU PRB3 (11715151_x_at) / Fold change /veh PRB3 (11715151_x_at) / RFU TUBB4B (11761932_at) / Fold change /veh TUBB4B (11761932_at) / RFU CAPN14 (11732068_a_at) / Fold change /veh CAPN14 (11732068_a_at) / RFU TMCC2 (11721928_a_at) / Fold change /veh TMCC2 (11721928_a_at) / RFU IRGQ (11745062_a_at) / Fold change /veh IRGQ (11745062_a_at) / RFU FAM174B (11720279_a_at) / Fold change /veh FAM174B (11720279_a_at) / RFU TMPRSS4 (11748680_a_at) / Fold change /veh TMPRSS4 (11748680_a_at) / RFU FAM212B (11763350_a_at) / Fold change /veh FAM212B (11763350_a_at) / RFU PLEKHG5 (11743358_a_at) / Fold change /veh PLEKHG5 (11743358_a_at) / RFU ZSCAN30 (11745921_a_at) / Fold change /veh ZSCAN30 (11745921_a_at) / RFU CMKLR1 (11741424_a_at) / Fold change /veh CMKLR1 (11741424_a_at) / RFU LOC101060620 /// MAPK8IP1 (11723275_at) / Fold change /veh LOC101060620 /// MAPK8IP1 (11723275_at) / RFU SPTSSB (11747773_x_at) / Fold change /veh SPTSSB (11747773_x_at) / RFU PRSS12 (11739890_at) / Fold change /veh PRSS12 (11739890_at) / RFU BIN1 (11741810_x_at) / Fold change /veh BIN1 (11741810_x_at) / RFU WNT11 (11732464_a_at) / Fold change /veh WNT11 (11732464_a_at) / RFU C10orf10 (11716521_a_at) / Fold change /veh C10orf10 (11716521_a_at) / RFU C5orf56 (11738089_at) / Fold change /veh C5orf56 (11738089_at) / RFU CYB561 (11721691_x_at) / Fold change /veh CYB561 (11721691_x_at) / RFU ANKRD19P (11752326_a_at) / Fold change /veh ANKRD19P (11752326_a_at) / RFU OR2T12 /// OR2T33 /// OR2T8 (11738714_s_at) / Fold change /veh OR2T12 /// OR2T33 /// OR2T8 (11738714_s_at) / RFU VCAN (11748164_a_at) / Fold change /veh VCAN (11748164_a_at) / RFU JSRP1 (11732532_at) / Fold change /veh JSRP1 (11732532_at) / RFU KRTAP10-11 (11738290_x_at) / Fold change /veh KRTAP10-11 (11738290_x_at) / RFU MYO3A (11730013_a_at) / Fold change /veh MYO3A (11730013_a_at) / RFU EBF3 (11725865_a_at) / Fold change /veh EBF3 (11725865_a_at) / RFU CAMK2N1 (11719241_x_at) / Fold change /veh CAMK2N1 (11719241_x_at) / RFU C5orf56 (11738088_a_at) / Fold change /veh C5orf56 (11738088_a_at) / RFU OLFML3 (11715873_a_at) / Fold change /veh OLFML3 (11715873_a_at) / RFU LOC100653217 /// NTM (11731650_a_at) / Fold change /veh LOC100653217 /// NTM (11731650_a_at) / RFU MAPK11 (11762145_a_at) / Fold change /veh MAPK11 (11762145_a_at) / RFU FIZ1 (11724087_x_at) / Fold change /veh FIZ1 (11724087_x_at) / RFU OASL (11726364_x_at) / Fold change /veh OASL (11726364_x_at) / RFU SOX15 (11748057_x_at) / Fold change /veh SOX15 (11748057_x_at) / RFU CD79A (11719716_a_at) / Fold change /veh CD79A (11719716_a_at) / RFU HIST1H1D (11736915_at) / Fold change /veh HIST1H1D (11736915_at) / RFU CASKIN2 (11723855_a_at) / Fold change /veh CASKIN2 (11723855_a_at) / RFU LOC730098 (11760151_x_at) / Fold change /veh LOC730098 (11760151_x_at) / RFU OR4N2 (11742367_at) / Fold change /veh OR4N2 (11742367_at) / RFU PRRT2 (11749266_a_at) / Fold change /veh PRRT2 (11749266_a_at) / RFU SNX32 (11753110_a_at) / Fold change /veh SNX32 (11753110_a_at) / RFU CDHR5 (11726645_a_at) / Fold change /veh CDHR5 (11726645_a_at) / RFU RCAN1 (11760418_a_at) / Fold change /veh RCAN1 (11760418_a_at) / RFU FAM167A (11723789_a_at) / Fold change /veh FAM167A (11723789_a_at) / RFU FAM26E (11764081_at) / Fold change /veh FAM26E (11764081_at) / RFU ISYNA1 (11749810_s_at) / Fold change /veh ISYNA1 (11749810_s_at) / RFU ACY1 (11761880_at) / Fold change /veh ACY1 (11761880_at) / RFU 11764098_at / Fold change /veh 11764098_at / RFU SAMD14 (11745864_x_at) / Fold change /veh SAMD14 (11745864_x_at) / RFU NPB (11741838_a_at) / Fold change /veh NPB (11741838_a_at) / RFU TMPRSS6 (11731388_a_at) / Fold change /veh TMPRSS6 (11731388_a_at) / RFU KRTAP10-2 (11738614_at) / Fold change /veh KRTAP10-2 (11738614_at) / RFU ARHGAP8 /// PRR5-ARHGAP8 (11727945_x_at) / Fold change /veh ARHGAP8 /// PRR5-ARHGAP8 (11727945_x_at) / RFU KRTAP5-7 /// NADSYN1 (11734609_at) / Fold change /veh KRTAP5-7 /// NADSYN1 (11734609_at) / RFU RASL12 (11751679_a_at) / Fold change /veh RASL12 (11751679_a_at) / RFU CDKN2B (11736163_a_at) / Fold change /veh CDKN2B (11736163_a_at) / RFU PRF1 (11729649_at) / Fold change /veh PRF1 (11729649_at) / RFU, ZNF638 /// ZNF638-IT1 / Fold change vs veh, ZNF638 /// ZNF638-IT1 / RFU, PANK3 / Fold change vs veh, PANK3 / RFU, SH3YL1 / Fold change vs veh, SH3YL1 / RFU, ZEB2 / Fold change vs veh, ZEB2 / RFU, NRIP1 / Fold change vs veh, NRIP1 / RFU, PTTG1IP / Fold change vs veh, PTTG1IP / RFU, CAPN2 / Fold change vs veh, CAPN2 / RFU, MED14 / Fold change vs veh, MED14 / RFU, SNORA58 / Fold change vs veh, SNORA58 / RFU, C1orf63 / Fold change vs veh, C1orf63 / RFU, LRRFIP1 / Fold change vs veh, LRRFIP1 / RFU, NDUFAF7 / Fold change vs veh, NDUFAF7 / RFU, SLC12A2 / Fold change vs veh, SLC12A2 / RFU, IBTK / Fold change vs veh, IBTK / RFU, ESF1 / Fold change vs veh, ESF1 / Fold change vs veh, TMEM50B / RFU, TAOK1 / Fold change vs veh, TAOK1 / RFU, ACBD3 / Fold change vs veh, ACBD3 / RFU, TMA16 / Fold change vs veh, TMA16 / RFU, RWDD3 / Fold change vs veh, RWDD3 / RFU, BCAT1 / Fold change vs veh, BCAT1 / RFU, EDEM3 / Fold change vs veh, EDEM3 / RFU, TMEM33 / Fold change vs veh, TMEM33 / RFU, WDR75 / Fold change vs veh, WDR75 / RFU, AHCTF1 / Fold change vs veh, AHCTF1 / RFU, TFRC / Fold change vs veh, TFRC / RFU, ZDHHC17 / Fold change vs veh, ZDHHC17 / RFU, NOM1 / Fold change vs veh, NOM1 / RFU, ARL8B / Fold change vs veh, ARL8B / RFU, ZBTB11 / Fold change vs veh, ZBTB11 / RFU, TAMM41 / Fold change vs veh, TAMM41 / RFU, KIAA1704 /// LOC100996395 / Fold change vs veh, KIAA1704 /// LOC100996395 / RFU, ING1 / Fold change vs veh, ING1 / RFU, TRMT61B / Fold change vs veh, TRMT61B / RFU, FUBP3 / Fold change vs veh, FUBP3 / RFU, TP53 / Fold change vs veh, TP53 / RFU, TNKS2 / Fold change vs veh, TNKS2 / RFU, ZFP14 / Fold change vs veh, ZFP14 / RFU, ACTR2 / Fold change vs veh, ACTR2 / RFU, PPP3R1 / Fold change vs veh, PPP3R1 / RFU, PIK3R1 / Fold change vs veh, PIK3R1 / RFU, HNRNPA1 / Fold change vs veh, HNRNPA1 / RFU, RNF170 / Fold change vs veh, RNF170 / RFU, ZNF28 / Fold change vs veh, ZNF28 / RFU, RNGTT / Fold change vs veh, RNGTT / RFU, OGT / Fold change vs veh, OGT / RFU, BRD1 / Fold change vs veh, BRD1 / RFU, MARS / Fold change vs veh, MARS / RFU, ZNF655 / Fold change vs veh, ZNF655 / RFU, FAHD1 / Fold change vs veh, FAHD1 / RFU, BDP1 / Fold change vs veh, BDP1 / RFU, LRRCC1 / Fold change vs veh, LRRCC1 / RFU, ARID1A / Fold change vs veh, ARID1A / RFU, ZNF146 / Fold change vs veh, ZNF146 / RFU, ZNF330 / Fold change vs veh, ZNF330 / RFU, GPN3 / Fold change vs veh, GPN3 / RFU, C9orf123 / Fold change vs veh, C9orf123 / RFU, N4BP2L2 / Fold change vs veh, N4BP2L2 / RFU, ARFIP1 / Fold change vs veh, ARFIP1 / RFU, FAM179B / Fold change vs veh, FAM179B / RFU, BCL10 / Fold change vs veh, BCL10 / RFU, UHRF1BP1L / Fold change vs veh, UHRF1BP1L / RFU, BET1 / Fold change vs veh, BET1 / RFU, CNOT2 / Fold change vs veh, CNOT2 / RFU, ZNF268 / Fold change vs veh, ZNF268 / Fold change vs veh, ZNF507 / RFU, DGCR2 / Fold change vs veh, DGCR2 / RFU, WDSUB1 / Fold change vs veh, WDSUB1 / Fold change vs veh, HSP90B1 /// MIR3652 / RFU, ADSS / Fold change vs veh, ADSS / RFU, GK / Fold change vs veh, GK / RFU, ZNF148 / Fold change vs veh, ZNF148 / RFU, TAF9 / Fold change vs veh, TAF9 / RFU, SLC1A5 / Fold change vs veh, SLC1A5 / RFU, SLMO2 / Fold change vs veh, SLMO2 / RFU, ABCC4 / Fold change vs veh, ABCC4 / RFU, LOC101060439 /// RAP1B / Fold change vs veh, LOC101060439 /// RAP1B / RFU, RFX7 / Fold change vs veh, RFX7 / RFU, GTPBP10 / Fold change vs veh, GTPBP10 / RFU, CNEP1R1 / Fold change vs veh, CNEP1R1 / RFU, BIVM-ERCC5 /// ERCC5 / Fold change vs veh, BIVM-ERCC5 /// ERCC5 / RFU, ILF3 / Fold change vs veh, ILF3 / RFU 11762660_at / Fold change /veh 11762660_at / RFU VCAN (11757783_s_at) / Fold change /veh VCAN (11757783_s_at) / RFU DDX43 (11728927_at) / Fold change /veh DDX43 (11728927_at) / RFU KRT8 (11758188_x_at) / Fold change /veh KRT8 (11758188_x_at) / RFU NKD1 (11759106_at) / Fold change /veh NKD1 (11759106_at) / RFU SRD5A1 (11742802_a_at) / Fold change /veh SRD5A1 (11742802_a_at) / RFU TPSAB1 /// TPSB2 (11721975_s_at) / Fold change /veh TPSAB1 /// TPSB2 (11721975_s_at) / RFU GSTM3 (11746129_a_at) / Fold change /veh GSTM3 (11746129_a_at) / RFU IL23R (11737362_x_at) / Fold change /veh IL23R (11737362_x_at) / RFU TMEM51 (11727254_a_at) / Fold change /veh TMEM51 (11727254_a_at) / RFU PIWIL2 (11732686_x_at) / Fold change /veh PIWIL2 (11732686_x_at) / RFU ORM1 (11744905_x_at) / Fold change /veh ORM1 (11744905_x_at) / RFU CCDC152 (11743942_at) / Fold change /veh CCDC152 (11743942_at) / RFU ECM1 (11717891_a_at) / Fold change /veh ECM1 (11717891_a_at) / RFU IL23R (11748794_a_at) / Fold change /veh IL23R (11748794_a_at) / RFU TNFAIP8L3 (11732012_x_at) / Fold change /veh TNFAIP8L3 (11732012_x_at) / RFU MBOAT4 (11741988_at) / Fold change /veh MBOAT4 (11741988_at) / RFU 11764193_at / Fold change /veh 11764193_at / RFU TMEM53 (11763286_at) / Fold change /veh TMEM53 (11763286_at) / RFU MAGEB2 (11727129_at) / Fold change /veh MAGEB2 (11727129_at) / RFU TMEM200A (11744735_a_at) / Fold change /veh TMEM200A (11744735_a_at) / RFU CCDC152 (11751479_a_at) / Fold change /veh CCDC152 (11751479_a_at) / RFU FAM211A (11726209_a_at) / Fold change /veh FAM211A (11726209_a_at) / RFU RGS16 (11746705_a_at) / Fold change /veh RGS16 (11746705_a_at) / RFU VCAN (11755009_s_at) / Fold change /veh VCAN (11755009_s_at) / RFU RHOB (11743442_s_at) / Fold change /veh RHOB (11743442_s_at) / RFU RGS16 (11720943_a_at) / Fold change /veh RGS16 (11720943_a_at) / RFU RGS16 (11720944_at) / Fold change /veh RGS16 (11720944_at) / RFU, VPS4B / Fold change vs veh, VPS4B / RFU, CREB1 / Fold change vs veh, CREB1 / RFU, DNAJC13 / Fold change vs veh, DNAJC13 / RFU, GNAQ / Fold change vs veh, GNAQ / RFU, CDK5R1 / Fold change vs veh, CDK5R1 / RFU, ZRANB3 / Fold change vs veh, ZRANB3 / RFU, CUL4A / Fold change vs veh, CUL4A / RFU, CCNY / Fold change vs veh, CCNY / RFU, UFL1 / Fold change vs veh, UFL1 / RFU, COG3 / Fold change vs veh, COG3 / RFU, DIAPH2 / Fold change vs veh, DIAPH2 / RFU, SKA2 / Fold change vs veh, SKA2 / RFU, AFF3 / Fold change vs veh, AFF3 / RFU, LMF1 / Fold change vs veh, LMF1 / RFU, IPO11 / Fold change vs veh, IPO11 / RFU, DFFB / Fold change vs veh, DFFB / RFU, FOXP1 / Fold change vs veh, FOXP1 / RFU, CARD8 / Fold change vs veh, CARD8 / RFU, STRN3 / Fold change vs veh, STRN3 / RFU, ADK / Fold change vs veh, ADK / RFU, RASSF2 / Fold change vs veh, RASSF2 / RFU, WIPF1 / Fold change vs veh, WIPF1 / RFU, LARP1B / Fold change vs veh, LARP1B / RFU, RASA1 / Fold change vs veh, RASA1 / RFU, RB1 / Fold change vs veh, RB1 / RFU, PPFIA1 / Fold change vs veh, PPFIA1 / RFU, MAT2A / Fold change vs veh, MAT2A / RFU, CCT5 / Fold change vs veh, CCT5 / RFU, WDR92 / Fold change vs veh, WDR92 / RFU, CUX1 / Fold change vs veh, CUX1 / RFU, TTC7A / Fold change vs veh, TTC7A / RFU, TMEM135 / Fold change vs veh, TMEM135 / RFU, DEPTOR / Fold change vs veh, DEPTOR / RFU, CPM / Fold change vs veh, CPM / RFU, DNAJB6 / Fold change vs veh, DNAJB6 / RFU, CACNA2D3 / Fold change vs veh, CACNA2D3 / RFU, DTX4 / Fold change vs veh, DTX4 / RFU, TFCP2 / Fold change vs veh, TFCP2 / RFU, GMCL1 /// GMCL1P1 / Fold change vs veh, GMCL1 /// GMCL1P1 / RFU, AEBP2 / Fold change vs veh, AEBP2 / RFU, SNHG1 /// SNORD22 /// SNORD25 /// SNORD26 /// SNORD27 /// SNORD28 /// SNORD29 /// SNORD31 / Fold change vs veh, SNHG1 /// SNORD22 /// SNORD25 /// SNORD26 /// SNORD27 /// SNORD28 /// SNORD29 /// SNORD31 / Fold change (Aza/veh), C12orf56 (ProbeSet 11735607_a_at) / Fold change (ACY-1035/veh), C12orf56 (ProbeSet 11735607_a_at) / Fold change (Aza/veh), FGFR1OP (ProbeSet 11751329_s_at) / Fold change (ACY-1035/veh), FGFR1OP (ProbeSet 11751329_s_at) / Fold change (Aza/veh), VPS36 (ProbeSet 11739960_a_at) / Fold change (ACY-1035/veh), VPS36 (ProbeSet 11739960_a_at) / RFU SYPL1 (11715823_x_at) / Fold change /veh SYPL1 (11715823_x_at) / RFU IGFBP7 (11715501_s_at) / Fold change /veh IGFBP7 (11715501_s_at) / RFU REEP3 (11722064_at) / Fold change /veh REEP3 (11722064_at) / RFU IGLL1 (11728026_x_at) / Fold change /veh IGLL1 (11728026_x_at): dose or concentration left out as unconfirmed",
  "conditions": "ProbeSet 11738335_x_at; LIST B",
  "data": [
    {"smiles": "Nc1ccc(-c2cccs2)cc1NC(=O)c1ccc2c(c1)cc(C1CC1)n2CCN1CCOCC1", "note": "[ACY-1035]", "values": [
      {"measurement": "RFU, TP53", "value": 73.59, "unit": "RFU"}
    ]}
  ]
}
